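Compound exposure: 48 hours, 5 concentrations, 96-well plates. GI50 is the concentration that inhibits growth by half.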 Calls of active or inactive are those of the source. Rule as the data show it: active = GI50 up to about 1.1 µM and inactive = higher.
Experiments:
Test in all cases: NCI anticancer screen, dose series, 48 h
786-0 = test system: 786-0
A549 = test system: A549
ACHN = test system: ACHN
CAKI-1 = test system: CAKI-1
CCRF-CEM = test system: CCRF-CEM
COLO 205 = test system: COLO 205
DLD-1 = test system: DLD-1
DMS-114 = test system: DMS-114
DMS-273 = test system: DMS-273
EKVX = test system: EKVX
HCC 2998 = test system: HCC 2998
HCT-116 = test system: HCT-116
HCT-15 = test system: HCT-15
HL-60 = test system: HL-60
HOP-18 = test system: HOP-18
HOP-62 = test system: HOP-62
HOP-92 = test system: HOP-92
HT-29 = test system: HT-29
IGROV-1 = test system: IGROV-1
K562 = test system: K562
KM-20L2 = test system: KM-20L2
KM12 = test system: KM12
LXFL 529 = test system: LXFL 529
M14 = test system: M14
M19-MEL = test system: M19-MEL
MOLT-4 = test system: MOLT-4
Malme-3M = test system: Malme-3M
NCI-H226 = test system: NCI-H226
NCI-H23 = test system: NCI-H23
NCI-H460 = test system: NCI-H460
NCI-H522 = test system: NCI-H522
OVCAR-3 = test system: OVCAR-3
OVCAR-4 = test system: OVCAR-4
OVCAR-5 = test system: OVCAR-5
OVCAR-8 = test system: OVCAR-8
RPMI-8226 = test system: RPMI-8226
RXF 393 = test system: RXF 393
RXF 631 = test system: RXF 631
SF-268 = test system: SF-268
SF-295 = test system: SF-295
SF-539 = test system: SF-539
SK-MEL-28 = test system: SK-MEL-28
SK-MEL-2 = test system: SK-MEL-2
SK-MEL-5 = test system: SK-MEL-5
SK-OV-3 = test system: SK-OV-3
SN12C = test system: SN12C
SNB-19 = test system: SNB-19
SNB-75 = test system: SNB-75
SNB-78 = test system: SNB-78
SR = test system: SR
SW-620 = test system: SW-620
U-251 = test system: U-251
UACC-257 = test system: UACC-257
UACC-62 = test system: UACC-62
UO-31 = test system: UO-31
A498 = test system: A498
LOX IMVI = test system: LOX IMVI
TK-10 = test system: TK-10
XF498 = test system: XF498

Compound: CC[C@@H]1OC2(C)CC(S(=O)(=O)c3ccccc3)CC1O2 (stereo not given in full)
- GI50 (786-0): > 100 µM (inactive)
- GI50 (A549): > 100 µM (inactive)
- GI50 (ACHN): > 100 µM (inactive)
- GI50 (CAKI-1): < 0.01 µM (active)
- GI50 (CCRF-CEM): > 100 µM (inactive)
- GI50 (COLO 205): > 100 µM (inactive)
- GI50 (DLD-1): > 100 µM (inactive)
- GI50 (DMS-114): > 100 µM (inactive)
- GI50 (DMS-273): > 100 µM (inactive)
- GI50 (EKVX): > 100 µM (inactive)
- GI50 (HCC 2998): > 100 µM (inactive)
- GI50 (HCT-116): > 100 µM (inactive)
- GI50 (HCT-15): > 100 µM
- GI50 (HL-60): > 100 µM (inactive)
- GI50 (HOP-18): > 100 µM (inactive)
- GI50 (HOP-62): > 100 µM (inactive)
- GI50 (HOP-92): > 100 µM (inactive)
- GI50 (HT-29): > 100 µM (inactive)
- GI50 (IGROV-1): > 100 µM (inactive)
- GI50 (K562): > 100 µM (inactive)
- GI50 (KM-20L2): > 100 µM (inactive)
- GI50 (KM12): > 100 µM (inactive)
- GI50 (LXFL 529): > 100 µM (inactive)
- GI50 (M14): > 100 µM (inactive)
- GI50 (M19-MEL): > 100 µM (inactive)
- GI50 (MOLT-4): > 100 µM (inactive)
- GI50 (Malme-3M): > 100 µM (inactive)
- GI50 (NCI-H226): > 100 µM (inactive)
- GI50 (NCI-H23): > 100 µM (inactive)
- GI50 (NCI-H460): > 100 µM (inactive)
- GI50 (NCI-H522): > 100 µM (inactive)
- GI50 (OVCAR-3): > 100 µM (inactive)
- GI50 (OVCAR-4): > 100 µM (inactive)
- GI50 (OVCAR-5): > 100 µM (inactive)
- GI50 (OVCAR-8): > 100 µM (inactive)
- GI50 (RPMI-8226): > 100 µM (inactive)
- GI50 (RXF 393): > 100 µM (inactive)
- GI50 (RXF 631): > 100 µM (inactive)
- GI50 (SF-268): > 100 µM (inactive)
- GI50 (SF-295): > 100 µM (inactive)
- GI50 (SF-539): > 100 µM (inactive)
- GI50 (SK-MEL-28): > 100 µM (inactive)
- GI50 (SK-MEL-2): > 100 µM (inactive)
- GI50 (SK-MEL-5): > 100 µM (inactive)
- GI50 (SK-OV-3): > 100 µM (inactive)
- GI50 (SN12C): > 100 µM (inactive)
- GI50 (SNB-19): > 100 µM (inactive)
- GI50 (SNB-75): > 100 µM (inactive)
- GI50 (SNB-78): > 100 µM (inactive)
- GI50 (SR): > 100 µM (inactive)
- GI50 (SW-620): > 100 µM (inactive)
- GI50 (U-251): > 100 µM (inactive)
- GI50 (UACC-257): > 100 µM (inactive)
- GI50 (UACC-62): > 100 µM (inactive)
- GI50 (UO-31): > 100 µM (inactive)

Compound: Cc1nc2ccccc2c(=O)n1/N=C(\N=N\c1ccccc1Cl)c1ccccc1Cl
- GI50 (786-0): 48 µM (inactive)
- GI50 (A498): 43 µM (inactive)
- GI50 (A549): > 100 µM (inactive)
- GI50 (ACHN): 50.5 µM (inactive)
- GI50 (CAKI-1): 29.4 µM (inactive)
- GI50 (CCRF-CEM): 77.3 µM (inactive)
- GI50 (COLO 205): > 100 µM (inactive)
- GI50 (DLD-1): 67.5 µM (inactive)
- GI50 (DMS-114): 26.4 µM (inactive)
- GI50 (DMS-273): 44.8 µM (inactive)
- GI50 (EKVX): 28.8 µM (inactive)
- GI50 (HCT-116): 36.4 µM (inactive)
- GI50 (HCT-15): 57.1 µM
- GI50 (HL-60): 27.9 µM (inactive)
- GI50 (HOP-18): 28 µM (inactive)
- GI50 (HOP-62): 34.8 µM (inactive)
- GI50 (HOP-92): 13 µM (inactive)
- GI50 (HT-29): 53.6 µM (inactive)
- GI50 (IGROV-1): 42.1 µM (inactive)
- GI50 (K562): 37.3 µM (inactive)
- GI50 (KM-20L2): 76.7 µM (inactive)
- GI50 (LOX IMVI): 86.5 µM (inactive)
- GI50 (LXFL 529): 52.1 µM (inactive)
- GI50 (M14): > 100 µM (inactive)
- GI50 (M19-MEL): > 100 µM (inactive)
- GI50 (MOLT-4): 22.1 µM (inactive)
- GI50 (NCI-H23): 34 µM (inactive)
- GI50 (NCI-H460): 73.5 µM (inactive)
- GI50 (NCI-H522): 22.9 µM (inactive)
- GI50 (OVCAR-8): > 100 µM (inactive)
- GI50 (RPMI-8226): 30.1 µM (inactive)
- GI50 (RXF 393): 17.9 µM (inactive)
- GI50 (RXF 631): 88.9 µM (inactive)
- GI50 (SF-268): 35.1 µM (inactive)
- GI50 (SF-539): 27.2 µM (inactive)
- GI50 (SK-MEL-28): > 100 µM (inactive)
- GI50 (SK-MEL-5): 63.1 µM (inactive)
- GI50 (SK-OV-3): 22.9 µM (inactive)
- GI50 (SN12C): 38.8 µM (inactive)
- GI50 (SW-620): > 100 µM (inactive)
- GI50 (TK-10): 48 µM (inactive)
- GI50 (U-251): 48.5 µM (inactive)
- GI50 (UACC-62): 58.9 µM (inactive)
- GI50 (UO-31): 36.1 µM (inactive)
- GI50 (XF498): 11.9 µM (inactive)
